Among the data in a melting point compilation (Tetko et al.; mined from patent text by program, amines drawn as free bases though some values may be those of a salt) are melting point values, retold here.

Structures are written as SMILES. A value given as a limit tells only on which side of the number the result lay.

`CC(C)n1nc(-c2c(-c3ccccc3)nn3ccc(OCc4ccccc4)cc23)ccc1=O` came in with a melting point of 168 °C.

`CC(=O)C=Cc1ccccc1O` returned a melting point of 136 to 137 °C.

`CCNS(=O)(=O)c1ccc(N2N=C(C)C(=CNc3ccccc3OCC)C2=O)cc1` yielded a melting point of 238 °C.

As to `CCCn1c(=O)c2c(n(Cc3ccccc3)c1=O)NN=C(NC(C)=O)S2`, the melting point lay within 135 to 140 °C.

As to `CC#CCOc1cc(Oc2ccc(Cl)cc2F)ncn1`, the melting point came out at 118 °C.

`NC(=O)[C@@H]1[C@H](Nc2c(Br)cnc3[nH]c(-c4cccnc4N4CCOCC4)nc23)[C@H]2C=C[C@@H]1C2` showed a melting point of 150 °C.

Take `O=C(/C=C/C=C/c1ccccc1)NCCSCCC(=O)NO`: the melting point was 158 to 160 °C.

Compound `CCOC(=O)c1cnc2nc3ccccc3n2c1O` displayed a melting point of 309 to 310 °C.

Compound `OCCCc1ccc2ccn(C3CCN(CCc4ccc(F)cc4)CC3)c2c1` returned a melting point of 131 to 133 °C.

On to `CC(=O)c1ccc(OC2SCC(O)C(O)C2O)cn1` (stereo not drawn), for which the melting point lay within 178 to 179 °C.

For `CCOc1cc2c(c(OC(C)=O)c1OCC)=NC(=O)C(=O)N=2`, the melting point lay in the range of 321 to 322 °C.

`CCSC1CCC(=O)N1` (stereo not drawn) returned a melting point of 65 to 68 °C.

Compound `CCCCCC(C)C(C)c1cc(O)c2c(c1)OC(C)(C)C1=C2CN(CC(=O)N(C)C)CC1` (stereo not drawn) showed a melting point of 122 to 124 °C.

`CCC1(C)CC(NC(=O)c2ccccc2)C(C)C(C)(CC)N1OC(C)c1ccccc1` (stereo not drawn) came in with a melting point of 112 to 147 °C.

In turn, `CCCCCCCC(=O)OCCCCCCOc1ccc(Nc2ccccc2)cc1` returned a melting point of 42 to 43 °C.

In the case of `C=CCOc1nc2cccc(C(=O)OC)c2n1Cc1ccc(-c2ccccc2-c2nnn[nH]2)cc1`, the melting point lay in the range of 154 to 156 °C.

As for `CN(C)C(=N[N+](=O)[O-])N(Cc1cnc(Cl)s1)C(=S)Oc1ccccc1`, the melting point fell in the range of 161 to 162 °C.

Consider `CC(C)(C)[C@H]1CC[C@H](CC2=C(O)C(=O)c3ccccc3C2=O)CC1`, for which the melting point is 180 to 182 °C.

`c1cncc(CNC2=Nc3ccccc3Nc3ccccc32)c1` yielded a melting point of 150 to 152 °C.

Take `NS(=O)(=O)c1ccc(-c2ccc(Cl)n2-c2ccc(Cl)cc2Cl)cc1`: the melting point fell in the range of 186 to 187 °C.

`COc1ccc(Nc2nc(Cl)nc(NC3CC3)n2)cc1F` registered a melting point of 186 °C.

With `COC(=O)CCc1ccccc1CC1C2CCC(O2)C1c1nc(C(=O)CCCCCC2CCCCC2)co1` (stereo not drawn), the melting point fell in the range of 170 to 171 °C.

`CC1CCC2(OC1)OC1CC3C4CC(=O)C5CCCCC5(C)C4CCC3(C)C1C2C` (stereo not drawn) showed a melting point of 210 to 212 °C.

Turning to `CC(=O)NC1CC(C)(C)N(OC(C)=O)C(C)(C)C1`, the melting point was in the range of 129 to 132 °C.

For `C#CCOC(=O)C(C#N)=C(SC)SC`, the melting point fell in the range of 77 to 79 °C.

The compound `O=C(NCCO)OCc1ccccc1` gave a melting point of 55 to 57 °C.

In the case of `COc1ccc(C2CN(O)C3(C)CCCCC23)cc1OC` (stereo not drawn), the melting point lay within 147 to 149 °C.

Compound `CC(C)(C)Nc1nc(C#N)c(C#N)nc1N` registered a melting point of over 250 °C.

As to `C=CCNS(=O)(=O)c1ccc(I)cc1`, the melting point fell in the range of 76 to 77 °C.

On to `COc1ccc(C2CCN(c3c(C)c(C)c4c(c3C)C(O)(c3ccccc3)C(C)(C)O4)CC2)cc1OC` (stereo not drawn), for which the melting point was 143 to 145 °C.

`CCN(CC)C(=O)n1ccc(S(=O)(=O)c2ccc(Br)c(C)c2)n1` showed a melting point of 75 to 77 °C.

`CCCCCc1cn(CCCC)c(=O)n1Cc1ccc(-c2ccccc2-c2nnn[nH]2)nc1` showed a melting point of 176 to 177 °C.

`O=C(O)c1cn(CCc2cccc(Cl)c2)c2cc(C3CC3)nn2c1=O` yielded a melting point of 230 to 235 °C.

Consider `CC(=O)C1(c2ccccc2)CCN(C(=O)OC(C)(C)C)CC1`, for which the melting point lay in the range of 91 to 92 °C.

The compound `CC(C)(C)C(NC(=O)c1ccc(Cl)cc1)NC(=C[N+](=O)[O-])Nc1cccnc1` (stereo not drawn) yielded a melting point of 195 to 196 °C.

`Cn1nc(N2CCNCC2)c2ccccc21` displayed a melting point of 100 to 102 °C.

For `O=C(O)C(O)=CC(=O)c1cn(Cc2ccc(C(F)(F)F)cc2)c(=O)n(Cc2ccc(C(F)(F)F)cc2)c1=O`, the melting point is 176 to 178 °C.

`COc1ccc(C(=O)O)c2c1oc1ccc(Cl)cc12` came in with a melting point of 264 to 276 °C.

As to `CS(=O)c1ccc2c(c1)C(=O)C1(CC1)O2` (stereo not drawn), the melting point was in the range of 87 to 90 °C.

Regarding `O=C(O)C(CN1CCCC1)C(C(=O)O)P(=O)(O)O` (stereo not drawn), the melting point was in the range of 122 to 124 °C.

As for `COc1ccc2c(c1O)C(=O)O[C@@H]2[C@H]1c2c(cc3c(c2OC)OCO3)CCN1C`, the melting point lay within 142 to 143 °C.

As for `Cc1cc(OCc2ccccc2)c2cc(C(=O)N(C)C)[nH]c2c1`, the melting point lay within 205 to 207 °C.

As to `CNc1ccc(F)cc1C(C)=O`, the melting point lay within 43 to 45 °C.

For `CCS(=O)(=O)N[C@H](C(=O)NCc1ccc(OCc2ccccc2)c(OC)c1)C(C)C`, the melting point lay in the range of 141 to 152 °C.

Compound `COc1ccc(Cn2nc(CN3CCN(c4ccccc4OC)CC3)c3cc(OC)c(OC)cc32)cc1OC` yielded a melting point of 149 to 150 °C.

Turning to `CC(Cc1ccc(O)cc1)NCC(O)c1cc2ccccc2o1` (stereo not drawn), the melting point fell in the range of 135 to 138 °C.

Regarding `CCN1c2ncccc2C(=O)Nc2c(C)cc(OC)nc21`, the melting point fell in the range of 249 to 251 °C.

`CCC(CNC(=S)Nc1cccc(-c2c[nH]cn2)c1)N(Cc1ccc(Cl)c(Cl)c1)c1ccc(Br)cn1` (stereo not drawn) returned a melting point of 140 to 160 °C.

For `Cc1cc(-c2c(-c3ccc(S(N)(=O)=O)cc3)cnn(-c3ccc(F)c(Cl)c3)c2=O)ccc1F`, the melting point fell in the range of 243 to 245 °C.

Compound `CC(C)=NNc1cnn(-c2cccc(C(F)(F)F)c2)c(=O)c1` had a melting point of 255 to 257 °C.

As for `CCCCCS(=O)(=O)NC(=O)/C=C/c1ccc(OCCOC)cc1Oc1ncc(NC(=O)OC(C)(C)C)cc1C`, the melting point came to 150 °C.

For `O=C1c2ccccc2-c2c1c1ccccc1c(=O)n2CCCCCNS(=O)(=O)c1ccc(Br)cc1`, the melting point lay within 169 to 171 °C.

As to `COc1cc2c(c3c1OC(C)(C)C3)C(c1cccc(N)c1)=NC(C)(C)C2`, the melting point was 131 to 134 °C.

Consider `Cc1cc(CO)oc1CN(C)C`, for which the melting point fell in the range of 104 to 106 °C.

Compound `O=C1c2c(Cl)cccc2-n2cnc(-c3noc(CN4Cc5ccccc5C4)n3)c2[C@@H]2CCN12` returned a melting point of 218 to 222 °C.

On to `CCCC(=Cc1ccsc1)[N+](=O)[O-]`, for which the melting point lay within 52 to 54.5 °C.

In turn, `CC(C)n1nc(-c2c(-c3ccccc3)nn3ccc(OCC(=O)N4CCN(C(=O)OC(C)(C)C)CC4)cc23)ccc1=O` displayed a melting point of 140 to 144 °C.

In turn, `CCCn1c(=O)cc(-n2nc(-c3c(-c4ccccc4)nn4ccccc34)ccc2=O)n(CC(=O)OC)c1=O` displayed a melting point of 143 to 145 °C.

For `Cc1ccc(-c2c(CNC(=O)OC(C)(C)C)n(CC(C)C)c(=O)c3ccc(O)cc23)cc1`, the melting point lay within 233 to 234 °C.

For the compound `N#CCC(=N)c1cccc(F)c1`, the melting point was 67 to 68 °C.

As to `O=C(O)CCc1c(-c2ccccc2)noc1O`, the melting point lay within 183 to 184 °C.

Take `O=C1Nc2ccc(Cl)cc2C(OCC2CC2)(C(F)(F)F)CN1C1CC1` (stereo not drawn): the melting point was 154 to 155 °C.

Turning to `CCOC(=O)Cn1c(=O)n(Cc2ccc(Br)cc2F)c(=O)c2cc(Cl)c(Cl)cc21`, the melting point lay in the range of 220 to 221 °C.

Compound `COC(=O)C1=C(C)NC(C)=C(C(=O)OCC(C)(C)CN(C)C)C1c1cccc([N+](=O)[O-])c1Cl` (stereo not drawn) displayed a melting point of 167 to 169 °C.

As to `Cn1c(C(C)(C)C)cn(N=Cc2cccnc2)c1=O`, the melting point lay within 116 to 121 °C.

In turn, `O=C(COc1cc(F)ccc1C(=O)NCc1cccc([N+](=O)[O-])c1)OCc1ccccc1` yielded a melting point of 95 to 98 °C.

Take `COc1ccc(N2C[C@@](C)(COC(=O)c3ccc([N+](=O)[O-])cc3)OC2=O)cc1`: the melting point was 156 to 158 °C.

`O=c1cc(-c2cc(OCc3ccccc3)cc(OCc3ccccc3)c2)oc2cc(OCC(O)CN3CCN(c4ccccc4)CC3)ccc12` (stereo not drawn) returned a melting point of 168 to 170 °C.

`COC1=C(OC)C(=O)C(CCCCCCCCCOC(C)=O)=C(C)C1=O`: the melting point stood at 30 °C.

Compound `CN1CCCCC1CCc1ccccc1NC(=O)c1ccoc1` (stereo not drawn) came in with a melting point of 114 to 116 °C.

For `Cc1cc(C)c(C2=C(OC(=O)C(C)(C)C)CN(C)C2=O)c(C)c1`, the melting point turned out to be 75 °C.

`CC1=C(C#N)C(c2cccc([N+](=O)[O-])c2)C(c2nc(CCl)no2)=C(C)N1` (stereo not drawn) returned a melting point of 204 to 206 °C.

Compound `N#Cc1ccc(N2C(=O)CNC2=O)c2ccccc12` yielded a melting point of over 275 °C.

`CC(C)(C)OC(=O)NCc1cccc(Cn2ccc(OCc3ccc(F)cc3F)c(Br)c2=O)c1` showed a melting point of 80 to 84 °C.

Turning to `CC(CCCO)C1CCC2C3C(O)CC4CC(O)CCC4(C)C3CC(O)C12C` (stereo not drawn), the melting point is 226 to 227 °C.

Consider `CC1(CCl)C(C(=O)OCC(Cl)(Cl)Cl)N2C(=O)C(NC(=O)Cc3ccccc3)C2S1=O` (stereo not drawn), for which the melting point lay in the range of 130 to 131 °C.

Consider `Cc1n[nH]c(C)c1-c1ccc(OC2SCC(O)C(O)C2O)cn1` (stereo not drawn), for which the melting point came to 210 °C.

The compound `CC(C)(C)OC(=O)N1CCC2(CC1)CC(=O)N(O)C2=O` gave a melting point of 151 to 154 °C.

For the compound `N#CN=C(Nc1cccnc1)NC(NC(=O)c1ccc(Cl)cc1)C(F)(F)C(F)(F)F` (stereo not drawn), the melting point was in the range of 177 to 178 °C.

Turning to `CCOC(=O)N1CCC(=C2c3ccccc3CCn3c(CO)cnc32)CC1`, the melting point turned out to be 192 °C.

The compound `CC(=O)n1cc(-c2ccccc2)c(O)n1` showed a melting point of 215 °C.

In turn, `CC(=O)OCCN1C(=O)N2CCOC2(c2ccccc2)c2cc(Cl)ccc21` (stereo not drawn) displayed a melting point of 121 to 123 °C.

Consider `CCOC(=O)c1ccc(CC(=O)NC(CC(C)C)c2ccccc2N2CCCCC2)cc1OCC` (stereo not drawn), for which the melting point fell in the range of 111 to 112 °C.

In turn, `Cn1cc2c(n1)c(N)nc1ccccc12` had a melting point of 218 to 219 °C.

In turn, `COc1ccc2ccc3ccc(C=O)c4ccc1c2c34` displayed a melting point of 135 to 136 °C.

In turn, `O=C(c1ccc(-c2cnc3c(c2)N(Cc2cc(F)ccc2F)CCN3)cc1)N1CCC(N2CCCC2)CC1` yielded a melting point of 202 to 204 °C.

In turn, `CC(C)(C)OC(=O)C1CSC(c2cccc(F)c2F)N1` (mixture of isomers) registered a melting point of 120 °C.

For the compound `CC(C)(CCc1ccc(NC=NO)cc1)CN1CCCC1`, the melting point was in the range of 120 to 122 °C.

In general, melting point refers to the temperature of the solid-liquid transition.
